According to ChEMBL document CHEMBL1131898, “4-Pyridin-5-yl-2-(3,4,5-trimethoxyphenylamino)pyrimidines: potent and selective inhibitors of ZAP 70” (Bioorg Med Chem Lett, 1999):

What was measured:
[1] = target: Tyrosine-protein kinase CSK (Homo sapiens, UniProt P41240); assay: Inhibition of csk tyrosine kinase
Protein kinase C (PKC) = assay: Inhibition of protein kinase C (PKC); type: protein assay
[2] = target: Tyrosine-protein kinase Lck (Homo sapiens, UniProt P06239); assay: Inhibition of p56 lck tyrosine kinase
[3] = target: T1, Tyrosine-protein kinase ZAP-70 (Homo sapiens, UniProt P43403); assay: Inhibition of Zeta-chain (TCR) associated protein kinase 70 kDa phosphorylation of polyGly-Tyr.
T1 sequence (P43403 whole entry): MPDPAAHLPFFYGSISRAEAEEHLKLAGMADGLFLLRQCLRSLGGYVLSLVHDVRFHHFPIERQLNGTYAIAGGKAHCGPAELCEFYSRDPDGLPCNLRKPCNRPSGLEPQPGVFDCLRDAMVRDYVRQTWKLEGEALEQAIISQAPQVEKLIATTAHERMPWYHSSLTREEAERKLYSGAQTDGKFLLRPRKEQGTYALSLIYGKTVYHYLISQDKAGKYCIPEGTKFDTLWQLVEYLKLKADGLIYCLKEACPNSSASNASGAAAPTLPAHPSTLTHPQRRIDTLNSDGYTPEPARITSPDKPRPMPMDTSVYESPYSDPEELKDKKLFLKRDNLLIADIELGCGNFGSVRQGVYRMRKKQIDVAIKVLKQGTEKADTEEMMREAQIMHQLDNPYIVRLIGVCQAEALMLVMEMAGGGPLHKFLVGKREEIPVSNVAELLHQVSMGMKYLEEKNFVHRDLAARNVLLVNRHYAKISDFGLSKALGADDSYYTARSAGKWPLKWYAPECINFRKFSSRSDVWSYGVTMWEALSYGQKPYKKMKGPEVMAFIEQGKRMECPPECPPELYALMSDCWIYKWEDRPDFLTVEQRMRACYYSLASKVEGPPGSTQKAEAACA

[4] = target: Epidermal growth factor receptor (Homo sapiens, UniProt P00533); assay: Inhibition of Epidermal growth factor receptor (EGFr)
Epidermal growth factor receptor, sequence (P00533 whole entry): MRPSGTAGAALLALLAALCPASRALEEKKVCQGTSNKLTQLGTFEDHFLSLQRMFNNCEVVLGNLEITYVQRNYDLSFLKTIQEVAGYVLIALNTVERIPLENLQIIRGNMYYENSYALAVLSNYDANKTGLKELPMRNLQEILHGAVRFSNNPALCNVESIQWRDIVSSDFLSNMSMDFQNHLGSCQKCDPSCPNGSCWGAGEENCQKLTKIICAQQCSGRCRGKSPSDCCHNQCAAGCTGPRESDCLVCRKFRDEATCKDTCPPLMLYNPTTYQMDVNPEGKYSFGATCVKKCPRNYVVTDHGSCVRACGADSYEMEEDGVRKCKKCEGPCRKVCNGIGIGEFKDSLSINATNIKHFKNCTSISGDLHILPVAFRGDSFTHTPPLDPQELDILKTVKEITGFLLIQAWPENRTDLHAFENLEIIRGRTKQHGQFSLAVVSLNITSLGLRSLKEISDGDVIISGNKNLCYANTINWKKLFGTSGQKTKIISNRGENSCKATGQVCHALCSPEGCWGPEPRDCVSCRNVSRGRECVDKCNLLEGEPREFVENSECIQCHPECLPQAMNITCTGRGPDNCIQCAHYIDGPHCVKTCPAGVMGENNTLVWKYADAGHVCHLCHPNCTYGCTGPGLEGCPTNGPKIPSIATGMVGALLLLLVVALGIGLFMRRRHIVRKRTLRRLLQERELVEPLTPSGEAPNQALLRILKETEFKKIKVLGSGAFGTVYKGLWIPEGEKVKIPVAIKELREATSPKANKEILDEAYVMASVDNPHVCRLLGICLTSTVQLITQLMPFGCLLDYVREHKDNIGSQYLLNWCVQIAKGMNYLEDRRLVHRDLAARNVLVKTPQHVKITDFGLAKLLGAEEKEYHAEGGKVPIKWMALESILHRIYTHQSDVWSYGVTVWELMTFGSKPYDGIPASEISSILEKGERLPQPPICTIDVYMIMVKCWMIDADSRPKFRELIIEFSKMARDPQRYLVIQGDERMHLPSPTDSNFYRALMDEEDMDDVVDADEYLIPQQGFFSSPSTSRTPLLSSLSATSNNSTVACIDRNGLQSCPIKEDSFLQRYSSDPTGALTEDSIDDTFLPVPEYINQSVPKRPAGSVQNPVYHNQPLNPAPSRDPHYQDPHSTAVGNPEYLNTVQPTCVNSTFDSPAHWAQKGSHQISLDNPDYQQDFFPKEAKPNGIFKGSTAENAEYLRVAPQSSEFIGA

Tyrosine-protein kinase Lck, sequence (P06239 whole entry): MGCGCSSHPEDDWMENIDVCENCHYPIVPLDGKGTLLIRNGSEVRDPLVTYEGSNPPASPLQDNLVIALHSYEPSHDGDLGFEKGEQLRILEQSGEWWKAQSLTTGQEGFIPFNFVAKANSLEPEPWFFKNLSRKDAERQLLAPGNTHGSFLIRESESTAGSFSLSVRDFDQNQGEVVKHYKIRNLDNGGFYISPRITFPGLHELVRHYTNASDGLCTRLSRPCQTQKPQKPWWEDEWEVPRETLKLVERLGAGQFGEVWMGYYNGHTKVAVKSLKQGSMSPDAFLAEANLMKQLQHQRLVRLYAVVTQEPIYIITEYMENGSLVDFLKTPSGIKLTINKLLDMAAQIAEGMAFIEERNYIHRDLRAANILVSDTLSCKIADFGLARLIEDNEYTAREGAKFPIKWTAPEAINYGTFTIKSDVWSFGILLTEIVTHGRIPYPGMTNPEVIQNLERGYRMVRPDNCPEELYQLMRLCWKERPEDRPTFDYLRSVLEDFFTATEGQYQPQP

IC50 [1] [µM] | IC50 (Protein kinase C (PKC)) [nM] | IC50 [2] [nM] | IC50 [3] [nM] | IC50 [4] [µM] | Structure (SMILES)
> 10 | 1300 | 3300 | 54 |  | COc1cc(Nc2nccc(-c3ccc(N4CCNCC4)nc3)n2)cc(OC)c1OC
 | 2874 | 2200 | 8 |  | CC[C@H]1CN(c2ccc(-c3ccnc(Nc4cc(OC)c(OC)c(OC)c4)n3)cn2)CCN1
 | 1400 | 1100 | 1900 |  | COc1cc(Nc2nccc(-c3cccnc3)n2)cc(OC)c1OC
> 10 | 150 | 1200 |  | 5.1 | COc1cc(Nc2nccc(-c3ccc(NCCN)nc3)n2)cc(OC)c1OC
